Measured values as given in patent US10758609B2, “Cross-reactive T-cell epitopes of HIV, SIV, and FIV for vaccines in humans and cats” (priority 2015, dated 2020).

Legend:
[1] = test system: PBMC from FIV-vaccinated cats; assay: Feline IFNγ ELISpot of PBMC from vaccinated cats; assay type: cell-based, cat; settings: for IFNγ, frequency of responders: FIV peptides, FIV-vaccinated cats (prototype dual-subtype vaccine)
Method: (§1) IFNγ and IL2 ELISpot analyses were performed using feline IFNγ ELISpot and feline IL2 ELISpot kits (R&D Systems, Cat# SEL764 and SEL1890) as described. The threshold is defined as ≥50 spot forming units (SFU) per 1×10^6 PBMC when counted with MVS ELISpot Reader (MVS Pacific, LLC). Each result is an average of the duplicate samples after subtraction of the average value of the media controls.
(§2) Concurrently, the overlapping peptide pools of FIV structural/enzyme proteins were used to stimulate PBMC and T cells from FIV-vaccinated cats. These cats were vaccinated with prototype dual-subtype FIV vaccine which was the prototype to our commercial FIV vaccine (Coleman et al., 2014). The feline assays (Example 1) equivalent to those of human assays (Sanou et al., 2013; Roff et al., 2015) were used except for ICS analysis. In place of ICS for cytolysin/cytotoxins, IL2 ELISpot analysis was performed. […] The results for FIV-vaccinated cats included IFNγ and IL2 productions and CD3^+CD4+ and CD3^+CD8^+ T-cell proliferation (Table 9, the second set of results).
(§3) The feline IFNγ and L2 ELISpot analyses of PBMC to FIV MAPs and peptides were performed as previously described (Abbott et al. (2012)) using feline IFNγ modular kit (R&D Systems, Minneapolis, Minn.) and feline IL2 modular kit (R&D Systems). All results shown in the figures (FIGS. 8A-1, 8B-1, 8A-2, 8B-2, 8A-3, 8B-3) are after subtracting the average value of the results from all control cats.
(§4) The second parameter evaluated was the ability of the peripheral blood mononuclear cells (PBMC) from vaccinated and control cats to produce IL2 and interferon-γ (IFNγ) proteins in responses to FIV MAPs and peptides (FIGS. 8A-1, 8A-2, 8A-3, 8B-1, 8B-2, 8B-3) using feline IL2 and IFNγ ELISpot assays (Aranyos et al. (2016); Abbott et al. (2012)). IL2 enhances the proliferation of FIV-specific CD4^+ T cells and CD8^+ T cells. IFNγ is known enhance the FIV-specific CTL activities in vaccinated cats (Abbas et al. (2015)).

[2] = test system: PBMC from FIV-vaccinated cats; assay: Feline IL2 ELISpot of PBMC from vaccinated cats; assay type: cell-based, cat; settings: FIV peptides
Method: as §1, §2, §3, §4

[3] = test system: feline CD3^+CD4^+ T cells; assay: CFSE-based feline CD3+CD4+ T-cell proliferation; set-up: species or system cat; settings: FIV peptides; FIV-vaccinated cats
Method: (§5) Carboxyfluorescein diacetate succinimide ester (CFSE)-proliferation was performed according to the manufacturer's protocol (Invitrogen, Grand Island, N.Y.) and processed using a previously described modification. The modification consisted of 2.5×10^5 CFSE-labeled feline PBMC stimulated for 5 days (37° C., 5% CO2) with 4 μg/mL peptide in culture media (RPMI medium 25 µg/mL gentamycin, and 10% heat-inactivated fetal bovine serum (FBS)). Peptide pools consisted of 3-5 overlapping peptides of 4 μg/mL each. The antibodies used for flow cytometry based proliferation analysis consisted of murine anti-feline (Fe) CD3 monoclonal antibody (MAb clone kindly provided by Drs. Yorihiro Nishimura and Takayuki Miyazawa; described in [32]) combined with secondary goat anti-mouse IgG3-APC/CY7 MAb (SouthernBiotech, Birmingham, Ala.; Cat#1100-19); and murine anti-FeCD4-PE MAb (SouthernBiotech, Cat#8130-09); and murine anti-FeCD8 MAb (MAb clone kindly provided by Dr. Nazareth Gengozian, described in [33]) with secondary goat anti-mouse IgG2a-PE/CY7 (Southern Biotech, Cat#1080-17). The murine anti-B220-APC MAb for detecting feline B cells (SouthernBiotech, Cat#1665-11) and previously described MAbs for CFSE were used for FACS phenotyping. Both FACS phenotyping and CFSE-proliferation analyses were performed with BD LSRII and FACSDiva™ Software (BD Biosciences, San Jose, Calif.). The final value for each sample was derived after subtraction of the average value of the media controls using a positive threshold of ≥1 CFSE^low.
as §2
(§6) Carboxyfluorescein diacetate succinimide ester (CFSE)-proliferation analysis was according to the manufacturer's protocol (Invitrogen-Fisher, Carlsbad, Calif.) and processed as previously described (Roff et al. (2015)) using the following modifications: anti-feline CD3 antibody ((clone NZM1), a generous gift from T. Miyazawa (Univ. of Tokyo, Japan)) in combination with APC-conjugated anti-mouse IgG3 (Southern Biotech, Birmingham, Ala.), PE-conjugated anti-feline CD4 antibody (Southern Biotech), and anti-feline CD8 antibody (gift from N. Gengozian, University of Tennessee (Gengozian et al. (1997))) in combination with PE/Cy7-conjugated anti-mouse IgG2b (Southern Biotech) to detect the proliferation of feline CD3^+CD4+ T cells and feline […]. All results shown in the figures (FIGS. 7A-1, 7B-1, 7A-2, 7B-2, 7A-3, 7B-3) are after subtracting the average value of each results from all control cats. The threshold of CFSE proliferation is ≥0.5 CFSE^low. […]

[4] = test system: feline CD3^+CD8^+ T cells; assay: CFSE-based feline CD3+CD8+ T-cell proliferation; set-up: species or system cat; settings: for CD8^+ T (T-cell proliferation), frequency of responders: FIV peptides
Method: as §5, §2, §6

[5] = test system: FIVFC1; assay: FIV enhancement and suppression (E/S) analysis of in vitro FIV infection of feline PBMC; assay type: cell-based, feline immunodeficiency virus; settings: FIV peptides; in vitro FIV infection of uninfected cat PBMC
Method: FIV viral enhancement or suppression was determined using a 48-well modification of the method described for detecting FIV enhancing activity of IFNγ and FIV suppressive activity of IFNα [37]. […] MAP1c contained four branched chains of peptide Fp4-3. T-cell mitogen concanavalin A (ConA) at 4 μg/mL was used as an infection enhancing control. Six hours after the culturing with peptide, MAP, or ConA, varying dilutions of FIVFC1 were added to the wells. Seventy-two hours later the cells were re-cultured in fresh culture media with ConA-stimulated autologous PBMC (0.25-0.5×10^6) using the same amount of corresponding peptide, MAP, ConA or media. On Day 7, 10, and 13 of culture, 0.5 mL of culture fluid was collected and 0.5 mL of fresh media added to maintain a consistent volume. The harvested culture samples were analyzed for FIV titer using the previously described RT assay. The results are shown as the end-point dilution titer from two studies using PBMC from different SPF donors.
Statistical analysis. The statistically significant differences between the end-point dilution titers of the peptide or MAP culture samples and either the virus control samples or specific MAP culture samples were calculated using a paired Student t-test with a two-tailed distribution (SigmaPlot version 11.0). Statistical comparisons between pre and post-vaccination(s) were similarly performed. The comparison was considered statistically significant when p<0.05.

[6] = cats of Group 1, MAP Vaccine Trial 1 (FIG. 3)

Row | Sequence | IFNγ, frequency of responders [1] | IFNγ production [1, 6] | IL2, frequency of responders [2] | CDC4^+ T (T-cell proliferation), frequency of responders [3] | CD8^+ T (T-cell proliferation), frequency of responders ([4]; FIV-vaccinated cats) | Responder frequency in CD8+ T-cell proliferation ([4]; FIV-vaccinated cats, in vitro analyses (Table 9)) | % CD8+ T-cell CFSE^low over % CD4+ T-cell CFSE^low ratio (CD8/CD4 response ratio) [4, 6] | FIV Test E/S (enhancer/suppressor analysis) [5]
1 | KKKSGKWRLIDFRVLNKL [FRT3-3/4] | +++ (40.1%-54% (+++)) | 531 SFU/10^6 PBMC | ++++ (>54% (++++)) | — (0%-1.4%(—)) | +++ (40.1%-54% (+++)) | 44.4% | 9 | ↓
2 | RAWYLEALGKLAAIKAK [Fp10-2/3, overlapping peptide of MAP6] | — (0%-1.4%(—)) |  | +++ (40.1%-54% (+++)) | — (0%-1.4%(—)) | — (0%-1.4%(—)) |  |  | ↓
